Results taken from patent publication US20100210649A1, “PYRIDAZINONES AND FURAN-CONTAINING COMPOUNDS” (Sloan-Kettering Institute for Cancer Research, priority 2006, published 2010).
Values joined by “and” are separate entries in the source; they are usually repeats but may differ in a detail not shown here. Equal values may be shown once. Read-outs that look alike come from different tables or passages of the source.

How the values were obtained:
H3255 = assay: Non Small Cell Lung Cancer proliferation assay (Alamar Blue reduction), H3255; format: cell-based, human; conditions: for inhibition at 10 µM: NCI-H3255, primary screening, H3255, read-out: PRIMARY HTS [%] H3255 (percentage inhibition); for inhibition at 10 µM / CONFIRMATION [%] 3255: 10 μM compound in 1% DMSO (v/v); for CONFIRMATION [%] 3255: percentage inhibition
Summary of the method: (§1)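 Proliferation after 48 h compound exposure (1% DMSO final, 37 °C) was read by Alamar Blue reduction over an additional 48 h, fluorescence at 530 nm excitation/590 nm emission. Dose-response runs seeded 250 cells/well; DMSO-only wells as high control.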

H1650 = assay: Non Small Cell Lung Cancer proliferation assay (Alamar Blue reduction), H1650; format: cell-based, human; conditions: for IC50: read-out: IC50(uM) 1650; for inhibition at 10 µM: NCI-H1650, primary screening, H1650, read-out: PRIMARY HTS [%] H1650 (percentage inhibition); for inhibition at 10 µM / CONFIRMATION [%] 1650: 10 μM compound in 1% DMSO (v/v); for CONFIRMATION [%] 1650: percentage inhibition
Summary of the method: as §1

H2030 = assay: Non Small Cell Lung Cancer proliferation assay (Alamar Blue reduction), H2030; format: cell-based, human; conditions: for inhibition at 10 µM: NCI-H2030, primary screening, H2030, read-out: PRIMARY HTS [%] H2030 (percentage inhibition); for inhibition at 10 µM / CONFIRMATION [%] 2030: 10 μM compound in 1% DMSO (v/v); for CONFIRMATION [%] 2030: percentage inhibition
Summary of the method: as §1

H1975 = assay: Non Small Cell Lung Cancer proliferation assay (Alamar Blue reduction), H1975; format: cell-based, human; conditions: for inhibition at 10 µM: NCI-H1975, primary screening, H1975, read-out: PRIMARY HTS [%] H1975 (percentage inhibition); for inhibition at 10 µM / CONFIRMATION [%] 1975: 10 μM compound in 1% DMSO (v/v); for CONFIRMATION [%] 1975: percentage inhibition
Summary of the method: as §1

[1] = test system: NHBE (normal human bronchiolar epithelial cells); assay: cells; conditions: Homo sapiens, NHBE, read-out: IC50(uM) NHBE, phenylfuran-2-carboxamide SAR summary
Experimental: NHBE (normal human bronchiolar epithelial cells) are primary cells obtained from donor lungs and commercially available from Cambrex. The HPL1D (human peripheral lung epithelial) cell line has been immortalized with the SV40 large T-antigen. WI-38: human lung fibroblast cell line. HPLID, NHBE and WI-38 cells will serve as controls in the chemical screens. WT: wildtype; WT*: over-expressed wildtype.
Compounds were tested in dose response studies from […] to 5 nM against several non small cell lung cancer lines: H358, H827, H1118, H1650, H1734, H1975, H2030, and H3255, and were also studied in a 72 hour cytotoxicity assay against the NHBE and WI-38 cell lines.

[2] = Homo sapiens, NCI-H1650, phenylfuran-2-carboxamide SAR summary

| IC50 (H1650; [2]) [µM] | IC50 (H1650; phenylfuran-2-carboxamide SAR summary) [µM] | IC50 (H3255; Homo sapiens, NCI-H3255, phenylfuran-2-carboxamide SAR summary, read-out: IC50(uM) 3255) [µM] | IC50 (H2030; Homo sapiens, NCI-H2030, phenylfuran-2-carboxamide SAR summary, read-out: IC50(uM) 2030) [µM] | IC50 (H1975; Homo sapiens, NCI-H1975, phenylfuran-2-carboxamide SAR summary, read-out: IC50(uM) 1975) [µM] | SMILES | inhibition at 10 µM (H3255; Homo sapiens) [%] | CONFIRMATION [%] 3255 (H3255) [%] | inhibition at 10 µM (H1650; Homo sapiens) [%] | CONFIRMATION [%] 1650 (H1650) | inhibition at 10 µM (H2030; Homo sapiens) [%] | CONFIRMATION [%] 2030 (H2030) | inhibition at 10 µM (H1975; Homo sapiens) [%] | CONFIRMATION [%] 1975 (H1975) | IC50 [1] [µM] |
| --- | --- | --- | --- | --- | --- | --- | --- | --- | --- | --- | --- | --- | --- | --- |
| 1.6 | 2.31 | – | – | – | O=C(Nc1ccc(Cl)cc1C(F)(F)F)c1ccc([N+](=O)[O-])o1 [compound 64228] | 91 | 97 | 87 | 111% and 107% | 93 | 90% and 105% | 82 | 70% and 97% | 13.2 |
| 1.39 | – | 2.98 | 3.79 | 3.54 | O=C(NC1CCCCC1)c1ccc([N+](=O)[O-])o1 [compound 71763] | 77 | 135 | 87 | 136% | 82 | 97% | 61 | 74% | 24.9 |
